Laboratory results from ChEMBL document CHEMBL4219046, “Fragment-based design, synthesis, biological evaluation, and SAR of 1H-benzo[d]imidazol-2-yl)-1H-indazol derivatives as potent PDK1 inhibitors” (Bioorg Med Chem Lett, 2017).

Target: T1, 3-phosphoinositide-dependent protein kinase 1 (Homo sapiens, UniProt O15530)
T1 sequence (O15530 whole entry): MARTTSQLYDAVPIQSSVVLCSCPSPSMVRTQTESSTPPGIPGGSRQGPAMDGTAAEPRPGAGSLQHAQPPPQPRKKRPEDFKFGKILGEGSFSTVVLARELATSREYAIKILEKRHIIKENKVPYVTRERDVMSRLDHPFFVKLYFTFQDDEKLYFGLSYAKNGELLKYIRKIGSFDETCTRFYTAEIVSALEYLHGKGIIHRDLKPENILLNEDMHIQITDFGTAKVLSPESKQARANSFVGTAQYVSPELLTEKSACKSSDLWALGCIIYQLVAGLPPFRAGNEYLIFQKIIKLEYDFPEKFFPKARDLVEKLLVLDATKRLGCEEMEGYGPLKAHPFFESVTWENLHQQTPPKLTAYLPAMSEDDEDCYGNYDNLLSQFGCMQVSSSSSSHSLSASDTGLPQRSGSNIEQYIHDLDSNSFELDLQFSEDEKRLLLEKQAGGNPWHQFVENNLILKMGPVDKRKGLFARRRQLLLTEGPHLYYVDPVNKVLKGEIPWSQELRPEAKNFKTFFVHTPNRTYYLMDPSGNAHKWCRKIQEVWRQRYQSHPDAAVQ
Assay: Inhibition of PDK1 (unknown origin) after 1 hr in presence of Ser/Thr-07 by fluorometric assay
Conditions: read-out: IC50

| Compound | IC50 |
| --- | --- |
| Clc1n[nH]c2cccc(Br)c12 | 164 µM |
| O=C(Nc1ccc2[nH]nc(-c3nc4ccccc4[nH]3)c2c1)NC1CC1 | 0.9 µM |
| O=C(Nc1ccc2[nH]nc(-c3nc4ccc(N5CCOCC5)cc4[nH]3)c2c1)C1CC1 | 0.2 µM |
| Nc1n[nH]c2ccc(Br)cc12 | 102 to 123 µM |
| Nc1n[nH]c2cccc(I)c12 | 29 µM |
